What all share (assay): growth of human tumour cells (NCI), 48 h
Assay [1] relates to NCI-H226 lung.
In assay [2] the test system is OVCAR-5 ovarian.
Assay [3] relates to HOP-62 NSCLC.
Assay [4] has as its system KM12 colon.
In assay [5] the test system is HL-60(TB) leukemia.
For assay [6], the system named is SR leukemia.
Assay [7] relates to NCI-H460 lung.
Assay [8] concerns COLO 205 colon.
Assay [9] has as its system KM20L2 colon.
Assay [10] concerns SF-268 CNS.
The subject of assay [11] is ACHN renal.
The test system of assay [12] is SK-MEL-28 melanoma.
For assay [13], the system named is OVCAR-4 ovarian.
The test system of assay [14] is EKVX NSCLC.
Assay [15] concerns NCI/ADR-RES ovarian.
Assay [16] concerns MDA-N.
Assay [17] relates to BT-549 breast.
Assay [18] concerns HS 578T breast.
In assay [19] the test system is T-47D breast.
The subject of assay [20] is PC-3 prostate.

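Five compound concentrations were applied to cells in 96-well plates for 48 hours; endpoints were derived by simple linear interpolation of the resulting dose-response curve. Definition used: TGI = concentration required for complete inhibition of growth.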

As to `CCOC(=O)N1c2c(ccn2C)-c2ccn(C)c2N1C(=O)OCC`, the TGI in [1] was 37.5 µM; in [2] it was 35.5 µM; in assay [3] it was > 100 µM; in assay [4], 57.3 µM; in [5], 26.7 µM; in assay [6], 43.8 µM. Besides, the TGI stood at 49.3 µM in assay [7]; 57.1 µM in assay [8]; 27.8 µM in assay [9]; 38.7 µM in [10]; 29.6 µM in assay [11].
`CC(=O)OC[C@]1(C)CCCC2(C)C1CCC1C=C(C)[C@H]3CCC12C3` (some centres not stated): the TGI in assay [1], in [2], in assay [3], in assay [4], in [5] and in assay [12] was > 100 µM each time. For the same compound, the TGI in [6], in [7], in assay [8], in assay [9], in assay [13] and in assay [10] was > 100 µM each time. Further, the TGI in assay [11] is > 100 µM.
As for `CC(=O)NC1=C(NC(C)(C)C)C(=O)c2ccccc2C1=O`, the TGI is 27.6 µM in assay [1]; > 100 µM in assay [2]; > 100 µM in assay [3]; 99.2 µM in assay [14]; 92.9 µM in assay [4]; 5.6 µM in assay [5]. Moreover, the TGI was 43.1 µM in assay [12]; 41.1 µM in assay [7]; > 100 µM in assay [8]; 38 µM in assay [9]; 36.6 µM in assay [13]; 55.6 µM in assay [10]. For the same compound, in [11], the TGI is > 100 µM.
Take `CC1(C)CCc2c(c(N=Nc3ccc(S(N)(=O)=O)cc3)c3ccccc3c2O)O1`: the TGI in [1] amounted to 57.5 µM; in [2], 38.2 µM; in assay [3], 20.7 µM; in [14], 57.1 µM; in [4], 66.4 µM; in assay [5], 49.9 µM. The TGI in [12] was 72.9 µM; in assay [6], 58.3 µM; in [15] it was 59.9 µM; in [16] it was 9.72 µM; in assay [17], 29.1 µM; in [18], > 100 µM. For the same compound, the TGI in assay [7] came to 24.3 µM; in assay [8] it was 44.9 µM; in [13], 26 µM; in assay [19] it was 49.3 µM; in assay [10] it was 84.9 µM; in assay [11], 56.7 µM. Moreover, in [20], the TGI is 36.1 µM.
As to `COC(=O)[C@]12CC[C@H]3CC[C@H]([C@H]31)[C@H](c1ccccc1)N2`, the TGI amounted to 31.6 µM in [1]; 31.4 µM in assay [2]; 33.3 µM in [3]; 33.1 µM in assay [14]; 39.8 µM in assay [4]; 47.6 µM in assay [5]. Moreover, the TGI in assay [12] was 52.2 µM; in [6], 38.8 µM; in [15] it was 33.4 µM; in [16], 34.9 µM; in [17] it was 34.3 µM; in assay [18], 49.8 µM. Moreover, the TGI in assay [7] worked out at 31.2 µM; in [8], 30.8 µM; in [13] it was 31.6 µM; in [19] it was 50.3 µM; in [10] it was 41.5 µM; in assay [11], 31.4 µM. The same compound displayed a TGI in assay [20] of 38.7 µM.
As for `Cc1ccccc1NC(=O)c1c(C)oc2c1C(=O)c1ccccc1C2=O`, the TGI in [1] is > 100 µM; in assay [2] it was > 100 µM; in assay [3] it was > 100 µM; in assay [14], > 100 µM; in [4], > 100 µM; in assay [5], 56.9 µM. Moreover, the TGI is > 100 µM in assay [12]; 75.5 µM in assay [6]; > 100 µM in [7]; > 100 µM in assay [8]; > 100 µM in [9]; > 100 µM in [13]. Also, the TGI in assay [10] and in [11] was > 100 µM in each case.
Turning to `CC1=CC[C@H](C(C)C)C(C(O)[C@@H](C)O[Si](c2ccccc2)(c2ccccc2)C(C)(C)C)C1=O` (some centres not stated), the TGI in [1] worked out at 44 µM; in assay [2], 36.2 µM; in assay [3], 47.6 µM; in [14], 28.9 µM; in [4], 48.3 µM; in assay [5], 42.6 µM. The TGI in assay [12] is > 100 µM; in assay [6], > 100 µM; in [15] it was 38.1 µM; in assay [16] it was 53 µM; in assay [17] it was 37.5 µM; in [18], 67 µM. The TGI stood at 37.2 µM in assay [7]; 47.6 µM in [8]; 41 µM in assay [13]; 46.1 µM in assay [19]; 54.8 µM in assay [10]; 31.1 µM in [11]. Further, the TGI in assay [20] was found to be 33.6 µM.
In the case of `O=C(c1c(F)c(F)c(F)c(F)c1F)N1CCN(C(=O)c2c(F)c(F)c(F)c(F)c2F)C1=S`, the TGI in assay [1] is 30.8 µM; in assay [2], 29.4 µM; in [3] it was 29.1 µM; in assay [14], 32.9 µM; in [4] it was 18.8 µM; in assay [5], > 100 µM. In addition, the TGI in assay [12] is 14.9 µM; in assay [6], > 100 µM; in assay [15] it was 32.1 µM; in assay [16], 6.54 µM; in [17], 27.8 µM; in [18], 18.9 µM. The TGI in assay [7] came out at 25.6 µM; in assay [8] it was 18.6 µM; in assay [13], 10.4 µM; in assay [19] it was 24.2 µM; in assay [10], 32.6 µM; in assay [11] it was 20.3 µM. This compound registered a TGI in assay [20] of 21 µM.
In the case of `C/C=C1\C=C(OC)CN(CCc2c[nH]c3ccccc23)C1`, the TGI in assay [1], in assay [3], in [14], in assay [4], in assay [5] and in [6] was > 100 µM each time. Besides, the TGI in assay [7] is > 100 µM; in assay [8], > 100 µM; in assay [9], > 100 µM; in assay [13] it was > 100 µM; in [10] it was 95.5 µM; in assay [11], > 100 µM.
Turning to `NC(=O)c1cc2ccc(O)cc2o/c1=N/NC(=O)c1ccccc1`, the TGI in [1], in assay [2], in [3], in assay [14], in assay [4] and in [5] was > 100 µM in each case. The TGI in assay [12], in [6], in [15], in assay [16], in assay [17] and in [18] was > 100 µM throughout. Besides, the TGI is > 100 µM in assay [7]; > 100 µM in assay [8]; > 100 µM in [13]; 91.4 µM in assay [19]; > 100 µM in assay [10]; > 100 µM in assay [11]. In addition, the TGI in [20] was > 100 µM.
Take `COc1ccc2cc3[nH]c(=O)cc(O)c3cc2c1OC`: the TGI in assay [1], in [2], in assay [3], in assay [14], in assay [4] and in assay [5] was > 100 µM each time. Also, the TGI in assay [12], in assay [6], in [7], in assay [9], in [13] and in assay [10] was > 100 µM in each case. In [11], the TGI is > 100 µM.
With `CCN(CC)c1ccc2cc(C(N)=S)c(=N)oc2c1`, the TGI in [1], in [2], in assay [3], in assay [14], in [4] and in [5] was > 100 µM each time. Further, the TGI in assay [12], in assay [6], in assay [15], in assay [16], in [17] and in assay [18] was > 100 µM throughout. Moreover, the TGI in [7], in assay [8], in assay [13], in assay [19], in assay [10] and in assay [11] was > 100 µM throughout. For the same compound, the TGI in assay [20] was > 100 µM.
For `Oc1cc2c3c(c1)CCCN3CCC2`, the TGI in [1], in assay [2], in [3], in assay [14], in assay [4] and in assay [5] was > 10 µM throughout. Besides, the TGI in assay [12], in [6], in assay [15], in assay [16], in [17] and in assay [18] was > 10 µM throughout. In addition, the TGI in [7], in [8], in assay [13], in assay [19], in [10] and in assay [11] was > 10 µM throughout. Further, the TGI in assay [20] is > 10 µM.
With `CSC1=Nc2ccccc2-c2nc3ccccc3cc2C1`, the TGI in assay [1], in [2], in assay [3], in [14], in [4] and in assay [5] was > 100 µM each time. The TGI in assay [12], in assay [6], in [15], in assay [16], in [17] and in [18] was > 100 µM each time. Moreover, the TGI in assay [7], in [8], in assay [13], in [19], in assay [10] and in [11] was > 100 µM throughout. Also, the TGI in assay [20] was > 100 µM.
Consider `COc1ccc(-c2c3c(cc4cc5c(cc24)OCO5)C(=O)OC3)cc1OC`, for which the TGI in assay [1] is 12.4 µM; in assay [2] it was > 100 µM; in assay [3], 7.16 µM; in assay [14], > 75.6 µM; in assay [4], > 36 µM; in assay [5], > 31.8 µM. Moreover, the TGI amounted to 9.38 µM in assay [12]; 1.7 µM in assay [6]; 22.4 µM in assay [15]; 13.3 µM in assay [16]; 22.3 µM in [17]; 68.8 µM in [18]. Moreover, the TGI was 15.9 µM in assay [7]; 11.4 µM in assay [8]; > 100 µM in assay [13]; 3.46 µM in [19]; > 48 µM in [10]; > 100 µM in [11]. The same compound showed a TGI in [20] of 49.7 µM.

These data come from PubChem BioAssay (NCI).
